The values that follow come from patent US5681863A, “Non-metabolizable clomiphene analogs for treatment of tamoxifen-resistant tumors” (Merrell Pharmaceuticals Inc., priority 1994, dated 1997).

Where a name gives a salt, the structure may show the parent alone.

The subject of one test is LY2. Put plainly: Antiproliferation test, LY-2 human breast cancer cells (MCF-7 variant resistant to tamoxifen). The settings on record: for IC50: Homo sapiens, MCF7, 168 h, read-out: TRIPHENYLETHYLENE IC50's AGAINST BREAST CANCER CELLS, IC50, Cell line LY2; for IC50 compared with tamoxifen, in words (both cell lines: LY-2): statement in words. The class given is cell-based. Here is the method: (§1) Antiproliferation test Procedure:
(§2) The tests were conducted in 96-well microtiter plates. 5×10^3 cells were added to each well. Culture medium and drug solutions were added to wells with a Perkin Elmer Cetus PRO/PETTE. The culture medium was IMEM supplemented with 5% fetal bovine serum. Eight drug concentrations were tested, in duplicate, from 0.078 micromolar (μM) to 10 μM. After four days incubation the medium was replaced with fresh medium containing drug, and after a total of seven days, the cell monolayers were fixed with trichloracetic acid and stained with sulforhodamine dye. Absorbances (492 nm) of the extracted dye solutions were measured with a Titertek Multiscan plate reader.

The test system of another test is MCF-7. The test is described as follows: Antiproliferation test, MCF-7 human breast cancer cells (tamoxifen-sensitive). The class given is cell-based. The conditions noted are these: for IC50: Homo sapiens, MCF7, 168 h, read-out: TRIPHENYLETHYLENE IC50's AGAINST BREAST CANCER CELLS, IC50, Cell line MCF-7; for IC50 compared with tamoxifen, in words (both cell lines: MCF-7): statement in words. Here is the method:
as §1, §2

The IC50 is the concentration at which inhibition is half-maximal. `CCN(CC)CCNc1ccc(C(=C(Cl)c2ccccc2)c2ccccc2)cc1` [MDL 10222F, 2-[p-(2-Chloro-1,2-diphenylvinyl)-anilino]triethylamine Dihydrogen Citrate]: in the test on LY2, the IC50 worked out at 3800 nM and the “IC50 compared with tamoxifen, in words (both cell lines: LY-2)” value is “lower than the IC50 values of tamoxifen”. In the test on MCF-7, the IC50 came to 700 nM and the “IC50 compared with tamoxifen, in words (both cell lines: MCF-7)” value is given as “lower than the IC50 values of tamoxifen”.
On to `CCN(CC)CCSc1ccc(C(=C(Cl)c2ccccc2)c2ccccc2)cc1` [MDL 10007F, 2-[p-(2-Chloro-1,2-diphenylvinyl)-phenylthio]triethylamine Dihydrogen Citrate], for which, in the test with LY2, the IC50 worked out at 1000 nM and the “IC50 compared with tamoxifen, in words (both cell lines: LY-2)” value is “lower than the IC50 values of tamoxifen”. In the test with MCF-7, the IC50 worked out at 370 nM and the “IC50 compared with tamoxifen, in words (both cell lines: MCF-7)” value is “lower than the IC50 values of tamoxifen”.
Regarding `CCN(CC)CCCc1ccc(C(=C(Cl)c2ccccc2)c2ccccc2)cc1` [MDL 6866F, 1-[p-γ-diethylaminopropyl)phenyl]-1,2-diphenylchloroethylene dihydrogen citrate], in the test with LY2, the IC50 is 1600 nM and the “IC50 compared with tamoxifen, in words (both cell lines: LY-2)” value is listed as “lower than the IC50 values of tamoxifen”. In the test on MCF-7, the IC50 was 320 nM and the “IC50 compared with tamoxifen, in words (both cell lines: MCF-7)” value is “lower than the IC50 values of tamoxifen”.
